Test results from patent US11273144B2, “Compounds and compositions for the treatment of muscular disorders and bone disorders” (Epirium Bio Inc., priority 2012, dated 2022).
Where “and” joins values, the source holds several entries; their conditions need not be identical. Equal entries are not always repeated. Blank lines part the entries; values can stand above or below the compound they belong to.

Columns and labels:
[1] = test system: mouse myoblast cell line, C2C12; assay: Mouse myoblast assay (C2C12, Western blot); type: cell-based; conditions: C2C12, enantiomers 10 nM to 1000 nM, within 24 hr
Protocol: Cells or skeletal muscle tissue samples were homogenized in 50 ul lysis buffer (1% triton X-100, 20 mmol/L Tris, 140 mmol/L NaCl, 2 mmol/L EDTA, and 0.1% SDS) with protease and phosphatase inhibitor cocktails supplemented with 1 mmol/L PMSF, 2 mmol/L Na3VO4 and 1 mmol/L NaP. Homogenates were passed through an insulin syringe five times, sonicated for 30 min at 4DC and centrifuged (12,000×g) for 10 min. The total protein content was measured in the supernatant. A total of 40)Ig of protein was loaded onto a 5% or 10% SDS-PAGE, electrotransferred, incubated for 1 h in blocking solution (5% nonfat dry milk in TBS plus 0.1% Tween 20 [TBS-T]), followed by either a 3-h incubation at room temperature or overnight incubation at 4DC with primary antibodies. Primary antibodies were typically diluted 1:1000 or 1:2000 in TBS-T plus 5% bovine serum albumin. Membranes were washed (3× for 5 min) in TBS-T and incubated 1 h at room temperature in the presence of HRP-conjugated secondary antibodies diluted 1:10,000 in blocking solution. Membranes were again washed 3 times in TBS-T, and the immunoblots were developed using an enhanced chemiluminescence detection kit. The band intensities were digitally quantified. All primary antibodies are commercially available. Epicatechin induces follistatin expression, suppresses myostatin expression and accelerates the differentiation of cultured mouse myoblasts into myotubes. […] The mouse myoblast cell line, C2C12, was grown to semi-confluence in 6-well tissue culture plates and then exposed to epicatechin (100 nM) for three days using literature-standardized differentiation inducing media: DMEM supplemented with 2% horse serum. Proteins were extracted, separated by conventional gel electrophoresis and stained as Western blots by reacting with commercially available antibodies specific for markers of muscle cell growth and differentiation. In experiments examining the comparative effects of (−) and (+) epicatechin enantiomers on muscle cells, the cells were grown to semi-confluence in 6 well plates, placed into literature-standardized differentiation medium containing horse serum, and then stimulated for 24 hours with (−) or (+) epicatechin enantiomers, at concentrations ranging from 10 nM to 1000 nM. The cells were then harvested as above, and Western blots were prepared to determine relative expression of PGCla and follistatin, using commercially available, specific, primary antibodies.

[2] = Effect on body growth of rats on dexamethasone with or without epicatechin; type: in vivo, SD rats; conditions: for Femur Length / Tibia Length: 37th day; for WEIGHT Avg / LENGTH Avg: group average; for WEIGHT Ind: individual rat
Protocol: SD rats of the body weight 50-60 g and age 3-4 weeks were divided into 4 groups. […] All dosing were by subcutaneous (SC) mode of administration. Dosing of animals was continued for 36 days. Body weight was measured every alternate day, overall length was measured weekly. Animals were photographed periodically to further support data. Feed intake, general health and movement were assessed routinely. On 37th day animals were sacrificed and femur and tibia length were measured using Vernier Calipers. Blood was collected and stored.

[3] = epicatechin 3 MPK s/c followed by dexamethasone
[4] = epicatechin 10 MPK s/c followed by dexamethasone

SMILES: Oc1cc(O)c2c(c1)O[C@@H](c1ccc(O)c(O)c1)[C@@H](O)C2 [(+) epicatechin, (+)−epicatechin]
expression of PGC1u [1]: stimulated
expression of follistatin [1]: stimulated

SMILES: Oc1cc(O)c2c(c1)O[C@H](c1ccc(O)c(O)c1)[C@H](O)C2 [(−) epicatechin, (−)−epicatechin]
expression of PGC1u [1]: stimulated
expression of follistatin [1]: stimulated

Femur Length ([2]; dexamethasone s/c alone): 22.68 mm
Tibia Length ([2]; dexamethasone s/c alone): 28.67 mm
WEIGHT Avg ([2]; Day 1, dexamethasone alone SC): 59.3 g
WEIGHT Ind ([2]; Day 1, dexamethasone alone SC): 55.4 g and 57.7 g and 64.8 g
WEIGHT Avg ([2]; Day 11, dexamethasone alone SC): 89.1 g
WEIGHT Ind ([2]; Day 11, dexamethasone alone SC): 91.1 g and 84.3 g and 91.9 g
LENGTH Avg ([2]; Day 13, dexamethasone alone SC): 15.3 cm
LENGTH Avg ([2]; Day 23, dexamethasone alone SC): 14.2 cm
WEIGHT Avg ([2]; Day 23, dexamethasone alone SC): 85.7 g
WEIGHT Ind ([2]; Day 23, dexamethasone alone SC): 88.0 g and 80.0 g and 89.0 g
LENGTH Avg ([2]; Day 35, dexamethasone alone SC): 14.2 cm
WEIGHT Avg ([2]; Day 35, dexamethasone alone SC): 96.1 g
WEIGHT Ind ([2]; Day 35, dexamethasone alone SC): 103.9 g and 93.1 g and 91.5 g
SMILES: C[C@@H]1C[C@H]2[C@@H]3CCC4=CC(=O)C=C[C@]4(C)[C@@]3(F)[C@@H](O)C[C@]2(C)[C@@]1(O)C(=O)CO [DEX, Dexamethasone]

SMILES: Oc1cc(O)c2c(c1)O[C@H](c1ccc(O)c(O)c1)[C@H](O)C2 [epicatechin]
Femur Length [2, 3]: 29.57 mm
Tibia Length [2, 3]: 34.91 mm
Femur Length [2, 4]: 31.30 mm
Tibia Length [2, 4]: 35.37 mm
